Measured values published in patent publication US12415819B2, “Cu- and Ni-catalyzed decarboxylative borylation reactions” (The Scripps Research Institute, priority 2017, dated 2025).
In brackets after ≈: the same amount, converted by molar mass. Several values for one entry are separate records, joined by “and”; a condition that tells them apart may be missing. Equal entries are not always repeated.

Key:
[1] = molecular target: elastase in CF patient sputum (Homo sapiens (Human), UniProt P08246); experiment: Elastase inhibition assay in CF patient sputum; assay type: biochemical
Sequence of elastase in CF patient sputum (P08246 30-267): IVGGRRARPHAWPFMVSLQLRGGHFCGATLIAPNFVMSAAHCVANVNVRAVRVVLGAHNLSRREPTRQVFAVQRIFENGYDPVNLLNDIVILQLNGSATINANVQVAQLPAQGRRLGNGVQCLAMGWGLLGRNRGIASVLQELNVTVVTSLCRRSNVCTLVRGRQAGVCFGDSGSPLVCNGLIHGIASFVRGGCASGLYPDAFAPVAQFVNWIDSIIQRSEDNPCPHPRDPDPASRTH
Method: (§1) Serially diluted compounds in DMSO were dispensed into a 384-well black opaque plate by Echo dispenser. 0.1 μg/mL human neutrophil elastase (EPC, Catalog# SE563, Owensville, Ms.) or human sputum diluted with assay buffer (100 mM HEPES, 500 mM NaCl, 0.02% Tween 20) was added into the 384-well plate, and was incubated with different compounds at different concentrations for 30 minutes at room temperature. The final concentration of DMSO in the reaction was 0.1%. Elastase substrate MeOSuc-AAPV-AMC (Bachem, Catalog #I-1270, Torrance, CA) of 100 μM final concentration was then added into the reaction system just before enzyme kinetics were read on PheraSTAR plate reader at excitation of 380 nm and emission of 460 nm with a 3-minutes interval for 30 minutes in total. Slope of fluorescence intensity vs. time representing the Vmax of enzyme activity was calculated with MARS software. % relative inhibition was calculated as: […]
(§2) IC50 was calculated based on the % relative inhibition curve using log(agonist) vs. response (three parameters) method with Prism software. All experiments were performed in triplicate for at least three independent times.
(§3) Human sputum was purchased from Discovery Life Sciences (Los Osos, CA). Human sputum was diluted 1:10 in volume with assay buffer (100 mM HEPES, 500 mM NaCl, 0.02% Tween 20) followed by vigorous vortexing. The 1:10 diluted human sputum was further diluted into 1:30, 1:90, 1:270, 1:810, and 1:2430. The elastase concentration was determined by elastase inhibition assay as described above. Specifically, a series of standards of human neutrophil elastase (starting at 2 μg/mL and further diluted 1:2 in volume) were prepared in the assay buffer. The samples and standards were plated in a 384-well black solid bottom plate; the substrate MeOSuc-AAPV-AMC of 100 μM final concentration was then added into the reaction system just before enzyme kinetics were read on PheraSTAR plate reader as mentioned above. The slope of enzymatic kinetic reading was calculated by MARS software. The elastase levels of the human sputum were calculated based on the standard curve.

[2] = molecular target: elastase in COPD patient sputum (Homo sapiens (Human), UniProt P08246); experiment: Elastase inhibition assay in COPD patient sputum; assay type: biochemical
Sequence of elastase in COPD patient sputum (P08246 30-267): as above
Method: as §1, §2, §3

[3] = Plasma Stability Assay; assay type: in vitro ADME, mouse
Method: Propantheline was used as the reference compound in this assay; all stock solutions were stored at −40° C. before use. • 2) Test system: CD-1 Mouse Plasma from a minimum of 20 male individuals were obtained from BioreclamationlVT (Catalog #: […]2-M; Batch #: MSE244515). EDTA-K2 was used as the anticoagulant. Procedure:
The frozen plasma was thawed in a water bath at 37° C. prior to the experiments. The plasma was centrifuged at 4000 rpm for 5 min and the clots were removed if necessary.
The pH was adjusted to 7.4±0.1 as necessary. An intermediate solution (1 mM) was prepared and a 100 μM dosing solution was prepared by diluting 10 μL of the intermediate solution with 90 μL 45% MeOH/H2O. Duplicate of test samples were made by mixing 98 μL of blank plasma with 2 μL of dosing solution (100 μM) to achieve the final concentration of 2 μM. Samples were incubated at 37° C. At each time point (0, 10, 30, 60, and 120 min), 400 μL of stop solution (consisting of 200 ng/mL tolbutamide and 20 ng/mL buspirone in 50% MeOH/CH3CN) was added to precipitate protein under thorough mixing. The sample plates were then centrifuged at 4,000 rpm for 10 min. An aliquot of supernatant (100 μL) was transferred from each well and mixed with 200 of μL ultrapure water. The samples were shaken at 800 rpm for about 10 min before LC-MS/MS analysis.
Data analysis: The % remaining of test compound after incubation in plasma was calculated using following equation: Remaining=100×(PAR at Tn/PAR at T0) where PAR is the peak area ratio of analyte versus internal standard (IS) and The appointed incubation time points are T0 (0 min), Tn (n=0, 10, 30, 60, 120 min).
LC-MS/MS condition: Each compound was analyzed by LC/MS using an ACE 5-phenyl 50×2.1 mm column (Part No. ACE-125-0502) with 0.1% formic acid in water and 0.1% formic acid in acetonitrile as the mobile phases. Tobultamide was used as the internal standard. Data collected were processed by Analyst 1.6.2 software and MultiQuant 3.0.2 software.

[4] = in vitro
Method: 100 mM potassium phosphate buffer, pH 7.4. • 2. 10 mM MgCl2 • 3) Compound Dilution:
Intermediate solution was prepared by diluting 5 μL of compound or control stock solution (10 mM in DMSO) with DMSO (45 μL) and 1:1 Methanol/Water (450 μL) (concentration=100 μM, 45% MeOH). Working solution was prepared by diluting 50 μL of the intermediate solution with 450 μL of 100 mM potassium phosphate buffer, pH=7.4 (centration=10 μM, 4.5% MeOH). • 4) NADPH regenerating system (final Isocitric dehydrogenase concentration=1 unit/mL at incubation) comprised:
10 μL/well of compound working solution or control working solution was added to all plates (T0, T5, T10, T20, T30, T60, NCF60) except the matrix blank. 80 μL/well of microsome solution was added to every plate. The mixtures of microsome solution and compound were incubated at 37° C. for about 10 min. 10 μL/well of NADPH regenerating system (pre-warmed to 37° C.) was then added to every plate to start the reaction. […] For NCF60 (abbreviation of no co-factor) no NADPH regenerating system was added, but was replaced by 10 μL/well of potassium phosphate buffer (100 mM, pH 7.4); the resulting mixture was incubated at 37° C. for 1 h.
The reactions were then terminated with the stop solution (cold at 4° C.) containing 100 ng/mL Tolbutamide and 100 ng/mL Labetalol ([…]). The sampling plates were shaken for approximately 10 minutes, then were centrifuged at 4000 rpm for 20 min at 4° C. While centrifuging, 8 new 96 well plates were loaded with […] of HPLC grade water. 100 μL of supernatant was finally added to 300 μL of HPLC grade water and mixed for LC/MS/MS analysis.
The equation of first order kinetics was used to calculate T1/2 and CIint(mic): […]

[5] = Kinetic Solubility Test; assay type: physicochemical
Method: The stock solution of each compound (10 μL; 10 mM in DMSO) was diluted with phosphate buffer solution (490 μL; 50 mM, pH 6.8). The resulting mixture was shaken for 24 h. Samples were then filtered.

[6] = tested on: Caco-2 cells; experiment: in vitro; conditions: Caco-2
Method: Digoxin, fenoterol, and propranol were used as standards respectively. Transport Method:
The transport buffer used in the study was HBSS with 10 mM HEPES at pH 7.40±0.05. Compounds were tested at 2 μM bi-directionally in duplicates. Digoxin was tested at […] bi-directionally in a duplicate, while fenoterol and propranolol were tested at 2 μM in A(apical) to B (basolateral) direction in duplicates. The final DMSO concentration was adjusted to less than 1%. The plate was incubated for 2 hours in a CO2 incubator at 37±1° C., with 5% CO2 at saturated humidity without shaking. All samples, after mixing with acetonitrile containing internal standard, were centrifuged at 4000 rpm for 20 min. Subsequently,100 μL supernatant solution was diluted with 100 μL distilled water for LC/MS/MS analysis. Concentrations of test and control compounds in starting solution, donor solution, and receiver solution were quantified by LC/MS/MS methodologies, using peak area ratio of analyte/internal standard. After transport assay, lucifer yellow rejection assay was applied to determine the Caco-2 cell monolayer integrity.
Data analysis: The apparent permeability coefficient Papp (cm/s) was calculated using the equation:
The efflux ratio was calculated using the equation: Efflux ratio=Papp(BA)/Papp(AB)
Percent recovery was calculated using the equation: % Recovery=100×[(Vr·Cr)+(Vd·Cd)]/(Vd·C0) Where Vd is the volume in the donor chambers (0.075 mL on the apical side, 0.25 mL on the basolateral side); Cd and Cr are the final concentrations of transport compound in donor and receiver chambers, respectively.

[7] = molecular target: T1, human neutrophil elastase (Homo sapiens (Human), UniProt P08246); experiment: Elastase inhibition assay, purified human neutrophil elastase; assay type: biochemical; conditions: for IC50: read-out: IC50
T1 sequence (P08246 30-247): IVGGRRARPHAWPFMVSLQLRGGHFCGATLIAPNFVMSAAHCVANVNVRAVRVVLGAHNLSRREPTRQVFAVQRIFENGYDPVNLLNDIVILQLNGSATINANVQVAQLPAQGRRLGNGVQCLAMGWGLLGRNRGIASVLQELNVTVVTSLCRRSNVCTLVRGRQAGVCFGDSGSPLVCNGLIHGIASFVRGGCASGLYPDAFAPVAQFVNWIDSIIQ
Method: as §1, with “Elastase substrate MeOSuc-AAPV-AMC (Bachem, Catalog #I-1270, Torrance, CA) of 100 μM final concentration was then added into the reaction system just before enzyme kinetics were read on PheraSTAR plate reader at excitation of 380 nm and emission of 460 nm with a 3-minutes interval for 30 minutes in total.” left out
as §2

[8] = molecular target: T1, human neutrophil elastase; experiment: Time dependence of elastase inhibition; assay type: biochemical
Method: The procedure for the elastase inhibition assay was followed with slight modifications. 0.1 μg/mL human neutrophil elastase was incubated with a range of concentrations of inhibitors for 5, 15, 30 and 60 minutes before substrate MeOSuc-AAPV-AMC of 100 μM final concentration was added. Enzyme kinetics were read on PheraSTAR plate reader and IC50 was calculated with the method described above.

[9] = molecular target: T1, human neutrophil elastase; experiment: Elastase inhibition assay, purified human neutrophil elastase; assay type: biochemical
[10] = mouse, microsomes, 1 h, 1 μM, pH 7.4

Compound: COC(=O)N[C@H](C(=O)N1CCC[C@H]1C(=O)N[C@H](B(O)O)C(C)C)C(C)C [Compound 50, ((R)-1-((S)-1-((methoxycarbonyl)-L-valyl)pyrrolidine-2-carboxamido)-2-methylpropyl)boronic acid]
- IC50 ([1]; CF sputum): 0.51 ± 0.04 nM
- IC50 [2]: 0.274 ± 0.004 nM
- % Remaining (mean) ([3]; CD-1 Mouse Plasma, 0 min, 2 μM, 37° C.): 100.0%
- % Remaining (mean) ([3]; CD-1 Mouse Plasma, 10 min): 100.5%
- % Remaining (mean) ([3]; CD-1 Mouse Plasma, 30 min): 105.2%
- % Remaining (mean) ([3]; CD-1 Mouse Plasma, 60 min): 88.0%
- % Remaining (mean) ([3]; CD-1 Mouse Plasma, 120 min): 76.7%
- Extraction ratio ([4]; mouse, 1 μM, pH 7.4): <0.3
- Remaining (*NCF = 60min) [4, 10]: 99.0%
- Remaining (T = 60 min) [4, 10]: 78.5%
- CLint scaled at 1 μM ([4]; mouse, microsomes, pH 7.4): < 38 mL/min/kg
- half-life at 1 μM ([4]; mouse, microsomes, pH 7.4): > 2.42 h
- microsomal CLint at 1 μM ([4]; mouse, microsomes, pH 7.4): < 9.6 µL/min/mg
- solubility kinetic at 24 h ([5]; aqueous buffer, kinetic from dmso stock, phosphate buffer pH 6.8, 24 h): > 74.2 µg/mL and > 200 µM

Compound: CC(C)[C@H](NC(=O)c1ccc(C(=O)NS(=O)(=O)c2ccc(Cl)cc2)cc1)C(=O)N1CCC[C@H]1C(=O)N[C@H](C(=O)C(F)(F)F)C(C)C [Compound 51a]
- % Remaining (mean) ([3]; mouse, plasma, 10 min): 99.0%
- % Remaining (mean) ([3]; mouse, plasma, 0.5 h): 109.1%
- % Remaining (mean) ([3]; mouse, plasma, 1 h): 99.5%
- % Remaining (mean) ([3]; mouse, plasma, 2 h): 106.6%
- CD-1 Mouse Plasma % Remaining @ 2 hr ([3]; mouse, plasma, 2 h): 106.6%
- CLint(liver) ([4]; MLM 0.5): 76.6 mL/min/kg
- Remaining (*NCF = 60min) ([4]; MLM 0.5, no co-factor): 91.7%
- Remaining (T = 60 min) ([4]; MLM 0.5, with NADPH regenerating system): 52.2%
- Kinetic Solubility pH = 6.8 ([5]; phosphate buffer pH 6.8, 24 h): 119.75 μg/mL
- solubility kinetic at 24 h ([5]; phosphate buffer pH 6.8, 24 h): 174.28 µM (≈ 120 µg/mL)
- Kinetic solubility (pH 6.8) ([5]; summary table): 174.28 μm
- Caco-2 (Papp A − B) [6]: <0.16 10^−6 cm/s
- Caco-2 (Papp B − A) [6]: 0.61 10^−6 cm/s
- Mean Papp A to B [6]: <0.08 10^−6 cm/s
- Mean Papp B to A [6]: <0.12 10^−6 cm/s
- Mean Recovery % A to B [6]: <74.15%
- Mean Recovery % B to A [6]: <90.87%

Compound: Cc1c(-c2ccnn2-c2ccc(C#N)cc2)cc(C(=O)NCC(O)CNC(=O)c2cc(-c3ccnn3-c3ccc(C#N)cc3)c(C)n(-c3cccc(C(F)(F)F)c3)c2=O)c(=O)n1-c1cccc(C(F)(F)F)c1 [Compound 58]
- LipE ([7]; Purified NHE): 5.04
- IC50 ([7]; Purified NHE, 30 minutes incubation at room temperature, 100 μM substrate): 0.0111 ± 0.0002 nM
- IC50 ([7]; purified HNE): 0.011 nM
- IC50 ([1]; CF sputum): 203 ± 31.2 nM
- LipE ([1]; CF sputum): 0.77
- inhibitory activity in patient sputum versus purified HNE (in words) ([1]; sputum samples of CF and COPD patients): potencies diminished drastically
- IC50 [2]: 16.2 ± 2.13 nM
- LipE [2]: 1.87
- IC50 ([8]; 5 min incubation with inhibitor): 0.011 nM
- IC50 ([8]; 15 min incubation with inhibitor): 0.004 nM
- IC50 ([8]; 30 min incubation with inhibitor): 0.0026 nM
- increase in potency with increasing incubation times ([8]; between 5-60 minutes): 55 fold
- Ki ([9]; 2.5, 25, 50 and 100 μM substrate, mixed model): 0.0027 nM
- Ki ([9]; purified HNE): 0.0027 nM
